Laboratory results published in patent US20080031931A1, “ORGANOTELLURIUM AND SELENIUM-BASED ANTIMICROBIAL FORMULATIONS AND ARTICLES” (Andover Healthcare, Inc., priority 2006, published 2008).
Counter-ions that a name gives are not always drawn.

Test system: Methicillin-Resistant Staphylococcus aureus (MRSa) ATCC 33592
Assay: Time-kill (rate-of-kill) suspension assay against MRSa
Format: cell-based
Excerpt: Analyzing the efficacy of antimicrobial agents may be performed by various suspension and susceptibility methods. This study is designed to examine the rate-of-kill of a test substance against sponsor selected pure cultures of microorganisms. This is accomplished by exposing the target microorganism(s) to the test substance and inspecting the solution for potential survivors at various time periods. The experimental design in this protocol meets these requirements.
A suspension of bacterial cells is exposed to the test substance for specified contact times. After exposure, an aliquot of the suspension is transferred to a neutralizer and assayed for survivors. Appropriate purity, sterility, microorganism population and neutralization controls are performed.
Using a stock culture of the test organism, a culture of the test organism was struck onto the culture medium listed above. The bacterial cultures were incubated for 24-48 hours at 35-37° C. (alternate incubation may be utilized for certain strains). To produce a suspension containing approximately 1×10^8-1×10^9 CFU/mL, the culture suspension was adjusted with Butterfield's Buffer to yield a suspension matching a 0.5 McFarland turbidity standard.
The test substance to be tested was prepared by transferring a 5.95 mL aliquot of the prepared test substance to a sterile vessel for testing procedures. The test substances were assayed for microbial killing activity within 3 hours of preparation.
A […] aliquot of the standardized inoculum was added to the test substance representing the start of the test exposure (time=0 hr). The inoculated test substance was immediately mixed thoroughly using a laboratory vortex mixer or other applicable method. The inoculated and mixed test substance was held at the specified temperature.
A 1.0 mL aliquot of the inoculated test substance was transferred to 9 mL of neutralizer broth (10× dilution) at each of the times indicated. Four additional 1:10 dilutions in Butterfield's Buffer were also prepared. Using a standard microbiological spread plate count procedure, 1.0 mL aliquots of each dilution (10^−1-10^−4) were plated in duplicate to the appropriate recovery media.
A 5.0 mL aliquot of the neutralized sample (10× dilution) was transferred to a sterile 0.2-0.45 μm filter apparatus system pre-wetted with 10 mL sterile diluent. The sample was filter concentrated and the filter was rinsed using ≧50 mL sterile diluent. The filter was then aseptically removed and placed on the surface of the recovery agar medium to determine the percent MRSa survival.
The bacterial subculture plates were incubated for 48±4 hours at 35-37° C. Subculture plates may be refrigerated at 2-8° C. for ≦3 days prior to examination without affecting the results. Following incubation, the subculture tubes and plates were visually examined for growth. The agar plates were enumerated and recorded. Log and percent reductions will be determined for each time point.
As a control for the viability of the test organism, an equivalent volume of untreated inoculum (0.1 mL) is added to 9.9 mL Butterfield's Buffer (same volume as the test substance). This suspension was neutralized as in the test procedure. The suspension was serially diluted and appropriate dilutions plated using standard microbiological techniques. […] The acceptance criteria for this study control is growth and the value is used for calculation purposes.
Test Data CFU/mL: (avg. # colonies found/plate @ dilution used) (dilution factor) (volume of neutralized solution)/(volume plated) Percent Reduction: [1−(test survivors/test population control)]×100 Log10 Reduction: Log10 (test population control)—Log10 (test survivors) Further details of the microbial time-killing studies can be found in: • 1. American Society for Testing and Materials (ASTM). E2315-03, Guide for Assessment of Microbiocidal Activity Using a Time-Kill Procedure, Volume 11.05, Copyright 2005 ASTM International; and • 2. Food and Drug Administration. […]

[1] = 2 hour exposure, room temperature (20° C.), Agent 1 at 82 mM, Agent 2 at 41 mM, Agent 3 at 47 mM, 1.13×10^6 CFU/mL
[2] = 2 hour exposure, room temperature (20° C.), Agent 1 at 82 mM, Agent 2 at 41 mM, Agent 3 at 47 mM, dihydrochloride
[3] = 4 hour exposure, room temperature (20° C.), Agent 1 at 82 mM, Agent 2 at 41 mM, Agent 3 at 47 mM, dihydrochloride
[4] = 6 hour exposure, room temperature (20° C.), Agent 1 at 82 mM, Agent 2 at 41 mM, Agent 3 at 47 mM, dihydrochloride
[5] = 4 hour exposure, room temperature (20° C.), Agent 1 at 82 mM, Agent 2 at 41 mM, Agent 3 at 47 mM
[6] = 6 hour exposure, room temperature (20° C.), Agent 1 at 82 mM, Agent 2 at 41 mM, Agent 3 at 47 mM
[7] = 2 hour exposure, room temperature (20° C.), Agent 4 dissolved in DMSO, tested at 1, 10, and 100 mM
[8] = 4 hour exposure, room temperature (20° C.), Agent 4 dissolved in DMSO, tested at 1, 10, and 100 mM
[9] = 6 hour exposure, room temperature (20° C.), Agent 4 dissolved in DMSO, tested at 1, 10, and 100 mM

SMILES: NCC[Se][Se]CCN [Agent 2, selenocystamine dihydrochloride, reference compound]
- reduction of MRSa [1]: 95.5%
- log10 reduction of MRSa [2]: 1.34 log10
- log10 reduction of MRSa [3]: 1.946 log10
- reduction of MRSa [3]: 98.9%
- log10 reduction of MRSa [4]: 2.024 log10
- reduction of MRSa [4]: 99.1%

SMILES: NCC[Te]CCN [Agent 3, 2,2′-tellurodiethanamine 2 HCl]
- log10 reduction of MRSa (2 hour exposure, room temperature (20° C.), Agent 1 at 82 mM, Agent 2 at 41 mM, Agent 3 at 47 mM): 3.4 log10
- reduction of MRSa [1]: > 99.9%
- log10 reduction of MRSa [5]: > 4.1 log10
- reduction of MRSa [5]: > 99.9%
- log10 reduction of MRSa [6]: > 4.1 log10
- reduction of MRSa [6]: > 99.9%

SMILES: C=C(C)C(=O)OCC[Se]C#N [2-selenocyanatoethyl methacrylate]
- log10 reduction of MRSa [7]: > 4.1 log10
- reduction of MRSa [7]: > 99.9%
- log10 reduction of MRSa [8]: > 4.1 log10
- reduction of MRSa [8]: > 99.9%
- log10 reduction of MRSa [9]: > 4.1 log10
- reduction of MRSa [9]: > 99.9%

SMILES: O=[Te]([O-])[O-].[K+].[K+] [Test Substance 1, Potassium tellurite, reference compound]
- reduction of MRSa (all time points (exposure times of 2, 4 and 6 hours), starting ~3-4×10^6 CFU/mL MRSA ATCC 33592): very little to no reduction

SMILES: NCC[Se][Se]CCN [Agent 1, selenocystamine dihydrochloride]
- reduction of MRSa (2 hour exposure, room temperature (20° C.), Agent 1 at 82 mM, Agent 2 at 41 mM, Agent 3 at 47 mM, 1.13×10^6 CFU/mL, dihydrochloride): 51.3%
- log10 reduction of MRSa [2]: 0.31 log10
- log10 reduction of MRSa [3]: 0.54 log10
- reduction of MRSa [3]: 71.7%
- log10 reduction of MRSa [4]: 1.004 log10
- reduction of MRSa [4]: 90.1%
